Source: patent US9522139B2, “Fructose 1, 6-biphosphatases as new targets for diagnosing and treating breast cancer brain metastasis” (The University of Houston System, priority 2011, dated 2016)

Columns and labels:
MDA-MB-231Br3 cells [1] = test: Cell survival assay (trypan blue uptake) in glucose-free medium; assay type: cell-based
Protocol: By way of non-limiting example, to test the role of BCAAs in the survival of brain metastatic breast cancer cells, changes in the concentrations of BCAAs over time can be measured in MDA-MB-231 and MDA-MB-231Br3 cells when cultured in a glucose-free medium. […] To measure the ability of these two types of cells to oxidize BCAAs, ^14C-Leucine can be added to the culture media and the resulting ^14CO2 measured after 8 hours of incubation. […] To investigate the mechanism by which brain metastatic cells gain such higher activity of BCAA oxidation, the levels of the rate limiting enzymes of BCAA oxidation, branched chain ketoacids dehydrogenase E1 subunit (BCKDH-E1), the inactivated form of BCKDH-E1, pSer293-BCDKH-E1 (phosphorylated at serine 293 of the E1 subunit), the BCKDH inactivating kinase, and the branched chain ketoacids dehydrogenase kinase (BDK) can be determined in both brain metastatic cells and parental cells. […] Also, to test the pro-survival role of BCAAs in MDA-MB-231Br3 cells, BCAAs can be removed from the glucose-free medium containing glutamine. […] For these tests, trypanblue uptake can used to identify dead cells, and triplicates of samples can be used in each group.
Cells were seeded in 6-well plates in full MEM medium containing 5% dialyzed FBS and supplemented with 100 IU/ml penicillin and 100 μg/ml streptomycin (Invitrogen, CA, USA) and 292 ug/ml L-Glutamine (Invitrogen, CA, USA). Medium were replaced with modified MEM after 12 hours. Modified MEM contains basic formula of 5% dialyzed FBS and 100 IU/ml penicillin and 100 μg/ml streptomycin, other supplements like glutamine, glucose, etc. were added in the basic formula according to different needs of experimental groups. Both cell culture medium and trysinized cells were collected after 48 hours and stained with trypan blue. Viability counting was counted by Countess® Automated Cell Counter (Invitrogen, CA, USA).

MDA-MB-231Br3 cells [2] = test: Resistance to chemotherapeutic reagents, brain metastatic vs parental cells (FIG. 1A); assay type: cell-based; details: MDA-MB-231Br3 vs parental MDA-MB-231, triplicates

| SMILES | cell death upon inhibition of GLUD (MDA-MB-231Br3 cells [1]; MDA-MB-231Br3 cells cultured in glucose-free medium, trend reverted upon addition of α-KG, FIG. 2D) | effect of incremental removal of BCAAs on sensitivity to GLUD inhibition (MDA-MB-231Br3 cells [1]; MDA-MB-231Br3 cells, glucose-free medium, 24 hour treatment, FIG. 3G) | sensitivity to GLUD inhibition, brain metastatic cells vs parental MDA-MB-231 cells (MDA-MB-231Br3 cells [1]; in the absence of glucose, FIG. 2D) | resistance of MDA-MB-231Br3 cells to chemotherapeutic reagent relative to parental cells (MDA-MB-231Br3 cells [2]) |
| --- | --- | --- | --- | --- |
| O=C(O[C@@H]1Cc2c(O)cc(O)cc2O[C@@H]1c1cc(O)c(O)c(O)c1)c1cc(O)c(O)c(O)c1 [EGCG, epigallocatechin gallate] | dose dependent cell death | significantly sensitizes | more sensitive |  |
| CC(=O)O[C@H]1C(=O)[C@@]2(C)[C@H]([C@H](OC(=O)c3ccccc3)[C@]3(O)C[C@H](OC(=O)[C@H](O)[C@@H](NC(=O)c4ccccc4)c4ccccc4)C(C)=C1C3(C)C)[C@]1(OC(C)=O)CO[C@@H]1C[C@@H]2O [Taxol] |  |  |  | more resistance |
| COc1cccc2c1C(=O)c1c(O)c3c(c(O)c1C2=O)C[C@@](O)(C(=O)CO)C[C@@H]3O[C@H]1C[C@H](N)[C@H](O)[C@H](C)O1 [adriamycin] |  |  |  | more resistance |
